One block for each compound: values may come before it. Calls of active or inactive are those of the source. The calls are words filed in the database; no cut-off is given here.
Assays:
Cathepsin G [1] = molecular target: T1, Cathepsin G (Homo sapiens, UniProt P08311); test: Compound was tested for the enzyme inhibitory activity against Cathepsin G; NI = no inhibition
T1 sequence (P08311 whole entry): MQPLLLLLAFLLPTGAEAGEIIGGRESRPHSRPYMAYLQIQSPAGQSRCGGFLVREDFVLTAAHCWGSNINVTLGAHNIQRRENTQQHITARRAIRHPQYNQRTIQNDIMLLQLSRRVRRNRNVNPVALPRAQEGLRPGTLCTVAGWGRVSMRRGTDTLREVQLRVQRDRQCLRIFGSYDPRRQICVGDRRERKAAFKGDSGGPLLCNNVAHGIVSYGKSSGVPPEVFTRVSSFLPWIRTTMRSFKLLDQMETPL

Neutrophil elastase [2] = molecular target: T2, Neutrophil elastase (Homo sapiens, UniProt P08246); test: Compound was tested for the enzyme inhibitory activity against Human Leukocyte elastase
T2 sequence (P08246 whole entry): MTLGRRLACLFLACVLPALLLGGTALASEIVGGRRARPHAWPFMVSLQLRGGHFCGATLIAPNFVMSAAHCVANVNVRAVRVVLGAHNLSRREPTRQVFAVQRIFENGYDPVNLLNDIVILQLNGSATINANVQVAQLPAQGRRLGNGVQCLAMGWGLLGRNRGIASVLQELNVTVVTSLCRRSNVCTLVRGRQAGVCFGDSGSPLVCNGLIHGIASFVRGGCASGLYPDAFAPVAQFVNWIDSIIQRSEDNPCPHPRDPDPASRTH

[3] = molecular target: T3, Cathepsin G (Homo sapiens) (UniProt P08311); test: Inhibitory activity against Cathepsin G (CatG) at 28 uM concentration
T3 sequence (whole entry): T1 sequence (P08311 whole entry)

[4] = molecular target: T4, Neutrophil elastase (Homo sapiens) (UniProt P08246); test: Inhibitory activity against Human Leukocyte Elastase (HLE) at 28 uM concentration
T4 sequence (whole entry): T2 sequence (P08246 whole entry)

[5] = molecular target: T5, Chymotrypsin-like elastase family member 2A (Sus scrofa) (UniProt P08419); test: Inhibitory activity against Porcine Pancreatic Elastase (PPE) at 28 uM concentration; NI = no inhibition
T5 sequence (whole entry): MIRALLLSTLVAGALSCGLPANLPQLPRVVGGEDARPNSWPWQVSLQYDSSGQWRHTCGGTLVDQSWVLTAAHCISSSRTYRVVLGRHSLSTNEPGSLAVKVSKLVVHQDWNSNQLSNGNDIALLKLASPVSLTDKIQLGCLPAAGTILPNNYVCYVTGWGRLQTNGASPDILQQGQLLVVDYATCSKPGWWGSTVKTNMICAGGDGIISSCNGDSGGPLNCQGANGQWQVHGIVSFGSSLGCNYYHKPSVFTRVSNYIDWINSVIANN

[6] = molecular target: Chymotrypsinogen A (Bos taurus) (UniProt P00766); test: Inhibitory activity against Chymotrypsinogen at 28 uM concentration
Neutrophil elastase [7] = molecular target: T2, Neutrophil elastase; test: In vitro inhibition of human leukocyte elastase.
[8] = molecular target: T3, Cathepsin G (Homo sapiens); test: Inhibitory activity against Cathepsin G (CatG) at 58 uM concentration
[9] = molecular target: Chymotrypsinogen A (Bos taurus) (UniProt P00766); test: Inhibitory activity against Chymotrypsinogen at 58 uM concentration
[10] = molecular target: T4, Neutrophil elastase (Homo sapiens); test: Inhibitory activity against Human Leukocyte Elastase (HLE) at 58 uM concentration
[11] = molecular target: T5, Chymotrypsin-like elastase family member 2A (Sus scrofa); test: Inhibitory activity against Porcine Pancreatic Elastase (PPE) at 58 uM concentration
Cathepsin G [12] = molecular target: T1, Cathepsin G; test: Compound was tested for the enzyme inhibitory activity against Cathepsin G (CatG); NI = no inhibition
Cathepsin G [13] = molecular target: T1, Cathepsin G; test: Inhibition of Cathepsin G (CatG)
[14] = molecular target: Chymotrypsinogen A (Bos taurus) (UniProt P00766); test: Inhibitory activity against Chymotrypsinogen at 30 uM concentration
[15] = molecular target: T3, Cathepsin G (Homo sapiens); test: Inhibitory activity against Cathepsin G (CatG) at 30 uM concentration; NI = no inhibition
[16] = molecular target: T4, Neutrophil elastase (Homo sapiens); test: Inhibitory activity against Human Leukocyte Elastase (HLE) at 30 uM concentration
[17] = molecular target: T5, Chymotrypsin-like elastase family member 2A (Sus scrofa); test: Inhibitory activity against Porcine Pancreatic Elastase (PPE) at 30 uM concentration
[18] = molecular target: T3, Cathepsin G (Homo sapiens); test: Inhibitory activity against Cathepsin G (CatG) at 62 uM concentration
[19] = molecular target: T5, Chymotrypsin-like elastase family member 2A (Sus scrofa); test: Inhibitory activity against Porcine Pancreatic Elastase (PPE) at 62 uM concentration; NI = no inhibition
Neutrophil elastase [20] = molecular target: T2, Neutrophil elastase; test: Compound was tested for the enzyme inhibitory activity against Human Leukocyte Elastase (HLE) at 62 uM concentration
[21] = molecular target: T4, Neutrophil elastase (Homo sapiens); test: Inhibitory activity against Human Leukocyte Elastase (HLE) at 62 uM concentration
Neutrophil elastase [22] = molecular target: T2, Neutrophil elastase; test: Compound was tested for the enzyme inhibitory activity against Human Leukocyte Elastase (HLE); NI = no inhibition
Cathepsin G [23] = molecular target: T1, Cathepsin G; test: Compound was tested for the enzyme inhibitory activity against Cathepsin G
[24] = molecular target: T3, Cathepsin G (Homo sapiens); test: Inhibitory activity against Cathepsin G (CatG) at 29 uM concentration
[25] = molecular target: Chymotrypsinogen A (Bos taurus) (UniProt P00766); test: Inhibitory activity against Chymotrypsinogen at 29 uM concentration; NI = no inhibition
[26] = molecular target: T4, Neutrophil elastase (Homo sapiens); test: Inhibitory activity against Human Leukocyte Elastase (HLE) at 29 uM concentration; NI = no inhibition
[27] = molecular target: T5, Chymotrypsin-like elastase family member 2A (Sus scrofa); test: Inhibitory activity against Porcine Pancreatic Elastase (PPE) at 29 uM concentration; NI = no inhibition
[28] = molecular target: Chymotrypsinogen A (Bos taurus) (UniProt P00766); test: Inhibitory activity against Chymotrypsinogen at 56 uM concentration; NI = no inhibition
[29] = molecular target: T3, Cathepsin G (Homo sapiens); test: Inhibitory activity against Cathepsin G (CatG) at 56 uM concentration; NI = no inhibition
[30] = molecular target: T5, Chymotrypsin-like elastase family member 2A (Sus scrofa); test: Inhibitory activity against Porcine Pancreatic Elastase (PPE) at 56 uM concentration; NI = no inhibition
[31] = molecular target: T4, Neutrophil elastase (Homo sapiens); test: Inhibitory activity against Human Leukocyte Elastase (HLE) at 56 uM concentration; NI = no inhibition

Structure (SMILES): CC(=O)Oc1cc(OC(C)=O)c2c(c1)C(=O)c1cc(CBr)cc(OC(C)=O)c1C2=O
inhibition [3]: 9%
inhibition [4]: 28%
inhibition [5]: inactive
inhibition [6]: 3%

Structure (SMILES): O=C(O)c1cc(O)c2c(c1)C(=O)c1cc(O)cc(O)c1C2=O
inhibition [8]: 14%
inhibition [9]: 3%
inhibition [10]: 21%
inhibition [11]: 9%

Structure (SMILES): COc1cc(OC)c2c(c1)C(=O)c1cc(C)cc(OC)c1C2=O
inhibition [14]: 6%
inhibition [15]: inactive
inhibition [16]: 16%
inhibition [17]: 4%

Structure (SMILES): Cc1ccc2c(c1)C(=O)c1ccccc1C2=O [TECTOQUINONE]
IC50 (Cathepsin G [12]): Not Active
IC50 (Neutrophil elastase [7]): 39 µM

Structure (SMILES): CCCOc1cc(O)c2c(c1)C(=O)c1cc(C)cc(O)c1C2=O
inhibition [18]: 35%
inhibition [19]: inactive
IC50 (Neutrophil elastase [20]): 5.9 µM
inhibition [21]: 100%

Structure (SMILES): COc1cccc2c1C(=O)c1c(ccc(Cc3ccccc3)c1OC(C)=O)C2=O
IC50 (Cathepsin G [12]): Not Active
IC50 (Neutrophil elastase [22]): Not Active

Structure (SMILES): CCCCOC(=O)Oc1cc(OC(=O)OCCCC)c2c(c1)C(=O)c1cc(C)cc(OC(=O)OCCCC)c1C2=O
IC50 (Neutrophil elastase [7]): 1.3 µM

Structure (SMILES): O=C1c2ccccc2C(=O)c2c1ccc(Cc1ccccc1)c2O
IC50 (Cathepsin G [1]): Not Active
IC50 (Neutrophil elastase [2]): 6.6 µM

Structure (SMILES): COc1cc(OC)c2c(c1)C(=O)c1cc(CBr)cc(OC)c1C2=O
inhibition [24]: 14%
inhibition [25]: inactive
inhibition [26]: inactive
inhibition [27]: inactive

Next, values leading:

IC50 (Cathepsin G [1]): Not Active
IC50 (Neutrophil elastase [2]): > 60 µM
Structure (SMILES): COc1c(C)ccc2c1C(=O)c1ccccc1C2=O

IC50 (Neutrophil elastase [7]): 9.9 µM
Structure (SMILES): Cc1ccc2c(c1O)C(=O)c1c(O)cccc1C2=O

IC50 (Cathepsin G [12]): Not Active
IC50 (Neutrophil elastase [7]): 19 µM
Structure (SMILES): COc1cccc2c1C(=O)c1c(ccc(C)c1O)C2=O

IC50 (Cathepsin G [13]): > 60 µM
IC50 (Neutrophil elastase [7]): 11 µM
Structure (SMILES): C=CCc1ccc2c(c1O)C(=O)c1c(OC)cccc1C2=O

IC50 (Cathepsin G [23]): > 60 µM
IC50 (Neutrophil elastase [2]): 11 µM
Structure (SMILES): Cc1ccc2c(c1O)C(=O)c1ccccc1C2=O

IC50 (Neutrophil elastase [7]): 6.4 µM
Structure (SMILES): CCCCc1ccc2c(c1O)C(=O)c1c(O)cccc1C2=O

IC50 (Neutrophil elastase [7]): 3.9 µM
Structure (SMILES): CCCCCc1ccc2c(c1O)C(=O)c1c(O)cccc1C2=O

IC50 (Cathepsin G [13]): 28 µM
IC50 (Neutrophil elastase [7]): 4.2 µM
Structure (SMILES): CCCCCCc1ccc2c(c1O)C(=O)c1c(O)cccc1C2=O

IC50 (Cathepsin G [12]): No inhibition
IC50 (Neutrophil elastase [7]): 11 µM
Structure (SMILES): COc1cccc2c1C(=O)c1c(ccc(CC(C)C)c1O)C2=O

IC50 (Neutrophil elastase [7]): 5.9 µM
Structure (SMILES): CCCCc1ccc2c(c1O)C(=O)c1c(OC)cccc1C2=O

IC50 (Cathepsin G [23]): > 60 µM
IC50 (Neutrophil elastase [2]): 6 µM
Structure (SMILES): CCCCCCc1ccc2c(c1O)C(=O)c1c(OC)cccc1C2=O

inhibition [28]: inactive
inhibition [29]: inactive
inhibition [30]: inactive
inhibition [31]: inactive
Structure (SMILES): CC(=O)Oc1cccc2c1C(=O)c1c(OC(C)=O)cc(C)cc1C2=O

Source: ChEMBL document CHEMBL1125455, “Novel anthraquinone inhibitors of human leukocyte elastase and cathepsin G” (J Med Chem, 1992)
